Key:
in vivo = conditions: beagle, dog, plasma, po, 80 mg/kg
cognitive flexibility = assay: Operant set-shifting test against PCP; format: in vivo, male Wistar rats
Method: This assay serves as a model of impaired executive function associated with neuropsychiatric disorders like schizophrenia. The aim of this study was to evaluate COMPOUND C to reverse deficits observed with PCP on cognitive flexibility using the operant set-shifting test in the rat.
Substances & Formulation.
Doses were prepared by separate weighing (W/V). COMPOUND C formulations were prepared fresh on each dosing day and dosing was completed within 8 hours of formulation. Phencyclidine (PCP) hydrochloride, white powder, was dissolved in physiological saline by magnetic stirring, fresh each day of dosing.
Test System. 78 male Wistar rats were supplied for this study. • 72 rats, 8-9 weeks old, weighing 218-299 g at the beginning of the visual discrimination were submitted to the entire behavioral testing and assigned to match groups based on their performance during the second visual discrimination session. • 6 spare rats were submitted to lever pressing, side bias and visual discrimination but were discarded for the testing period (set-shift and reversal)
The experimental protocol which detects effects on behavioral flexibility follows that described by Floresco et al. (Behav. Brain Res., 190, 85-96 (2008)).
Apparatus. The apparatus consists of standard Med Associates ENV-008 Skinner boxes (30×25×30 cm) fitted with a house light, two retractable levers and a food pellet dispenser. The levers are located on either side of the food receptacle connected to the pellet dispenser. A light emitting diode stimulus light is positioned centrally above each lever and served as a stimulus for visual-cue discrimination learning.
Acquisition of lever-pressing (training). The aim of this phase was to train animals to lever-press to receive a food pellet reward.
Side bias. On the last day of training, the side bias for the rat was determined. The session was similar to the lever pressing session except that both levers were inserted into the chamber together (i.e. 90 levers presentations every 20 seconds). Again, the stimulus lights above each of the levers were not illuminated during this training session. On the first levers presentation, a food pellet was delivered after responding on either lever. Upon subsequent insertion of the levers, food was delivered only if the rat responded on the lever opposite to the one chosen initially. If the rat chose the same lever to the initial choice, no food was delivered. This continued until the rat chose the lever opposite to the one chosen initially. After choosing both levers, a new trial commenced. Thus, one trial for the side bias procedure consisted of responded on both levers. The sessions terminated after 90 levers presentations or after completion of 21 trials.
Visual-cue discrimination learning. After determining the side bias, animals were submitted to visual-cue discrimination learning.
A session began with both levers retracted and the chamber in darkness (the inter-trial state). Every 20 seconds, a trial began with illumination of one of the stimulus lights above one of the levers. 3 seconds later, the house light was illuminated, and both levers were inserted into the chamber. […] After food delivery, the house light remained on for another 4 seconds, after which the chamber returned to the inter-trial state. If the rat responded on the other lever (incorrect response), both levers retracted immediately without food delivery and the chamber reverted to the inter-trial state.

amidase = assay: Stability in the presence of amidase and amidase inhibitors in PBS; format: biochemical; conditions: amidase 50 units in PBS
Method: Stability of COMPOUND A in the Presence of Amidase in Pure System. […] Test article (COMPOUND A) stock solution was prepared in 100% DMSO at a concentration of 10 mM. An aliquot (50 μL) of test article stock solution was added to 950 μL of PBS with and without amidase (50 units) in 1.5 mL tubes, and the mixture was vortexed and incubated at 37° C. with 5% CO2 for 120 min. Samples (50 μL) were taken at 0, 15, 30, 60, and 120 min after being vortexed. Samples were quenched in 150 μL acetonitrile/0.1% formic acid solution and briefly vortexed then immediately frozen at −80° C. Stability was determined by measuring loss of parent compound using LC/MS/MS methods. Each exposure condition and time point were done in triplicate.
Stability of COMPOUND A in the Presence of Amidase and Amidase Inhibitors in a Phosphate-buffered Saline (PBS). To confirm inhibition of the amidase, individual inhibitors were added to PBS with amidase (50 units). A solution without amidase and without inhibitors was also tested as a control. The individual inhibitors tested were Chloroacetone at 200 μM and MAFP at 40 nM. Amidase solution was prepared as described above and inhibitors were added to the solutions to the intended concentrations. […] Stability was determined by measuring loss of parent compound using LC/MS/MS methods. […]

Structure (SMILES)	AUC(0-inf) (in vivo; female) [ng·h/mL]	AUC(0-t) (in vivo; female) [ng·h/mL]	Cmax (in vivo; female) [ng/mL]	MRT inf (in vivo; female) [h]	MRT last (in vivo; female) [h]	Tmax (in vivo; female) [h]	half-life (in vivo; female) [h]	AUC(0-inf) (in vivo; male) [ng·h/mL]	AUC(0-t) (in vivo; male) [ng·h/mL]	Cmax (in vivo; male) [ng/mL]	MRT inf (in vivo; male) [h]	MRT last (in vivo; male) [h]	Tmax (in vivo; male) [h]	half-life (in vivo; male) [h]	number of omissions, post-hoc Dunnett (cognitive flexibility; COMPOUND C 120 mg/kg p.o. + PCP, first set-shift session)	number of perseverative errors vs PCP controls (cognitive flexibility; COMPOUND C 40, 80, 120 and 160 mg/kg p.o. + PCP)	number of trials to reach the criterion vs PCP controls (cognitive flexibility; COMPOUND C 40, 80, 120 and 160 mg/kg p.o. + PCP, first set-shift and first reversal sessions)	omissions vs PCP-treated rats (cognitive flexibility; COMPOUND C 40-160 mg/kg p.o. + PCP)	role of amidase in degradation (amidase)
CCOc1ccccc1OC[C@@H]1CN(C(=O)OC(OC(=O)[C@H](N)C(C)C)C(C)C)CCO1 (stereo partly shown) [COMPOUND C]	591	572	308	4.78	3.16	0.5	4.73	1200	1190	775	2.8	2.58	0.5	2.94	significant effects at the dose of 120 mg/kg	did not significantly affect	did not significantly affect the number of trials to reach the criterion	increased omissions	
CCOc1ccccc1OC[C@@H]1CN(C(=O)OC(C)OC(=O)[C@@H](N)C(C)C)CCO1 (stereo partly shown) [COMPOUND A]																			amidase activity played an important role

— US20240343699A1, “DERIVATIVES OF SUBSTITUTED MORPHOLINES AND USES THEREOF” (Supernus Pharmaceuticals, Inc., priority 2023, published 2024)
